Source: patent US6737383B1, “Herbicidal oxadiazolidines” (priority 1999, dated 2004)

What was measured:
[1] = test system: crabgrass; experiment: Test B pre/postemergence crabgrass; assay type: in vivo, Digitaria sanguinalis
In short: (§1)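 Response is a visual 0-to-10 score relative to untreated plants, where 0 means no effect and 10 means complete control, taken twelve to sixteen days after application. Treatments went onto soil at planting and onto foliage of 1- to 4-leaf plants, using a surfactant-containing non-phytotoxic solvent.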

[2] = test system: bedstraw; experiment: Test B pre/postemergence bedstraw; assay type: in vivo, Galium aparine; details: Preemergence
In short: as §1

[3] = test system: soybean; experiment: Test B pre/postemergence soybean; assay type: in vivo, Glycine max
In short: as §1

[4] = test system: wheat; experiment: Test B pre/postemergence wheat; assay type: in vivo, Triticum aestivum
In short: as §1

[5] = test system: rape; experiment: Test B pre/postemergence rape; assay type: in vivo, Brassica napus
In short: as §1

[6] = test system: rice; experiment: Test B flood test rice; assay type: in vivo, Oryza sativa
In short: (§2)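 Read-out is a visual response score from 0 (no effect) to 10 (complete control), assigned by comparison with untreated controls. Treatment was applied at the 2-leaf stage, and plants stayed in the greenhouse for twelve to sixteen days before scoring.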

[7] = test system: wild oat; experiment: Test B pre/postemergence wild oat; assay type: in vivo, Avena fatua
In short: as §1

[8] = test system: surinam grass; experiment: Test B pre/postemergence surinam grass; assay type: in vivo, Brachiaria decumbens
In short: as §1

[9] = test system: bamyardgrass; experiment: Test B flood test barnyardgrass; assay type: in vivo, Echinochloa crus-galli
In short: as §2

[10] = test system: purple nutsedge; experiment: Test B pre/postemergence purple nutsedge; assay type: in vivo, Cyperus rotundus
In short: as §1

[11] = test system: velvetleaf; experiment: Test B pre/postemergence velvetleaf; assay type: in vivo, Abutilon theophrasti
In short: as §1

[12] = test system: corn; experiment: Test B pre/postemergence corn; assay type: in vivo, Zea mays
In short: as §1

[13] = test system: smallflower flatsedge; experiment: Test B flood test smallflower flatsedge; assay type: in vivo, Cyperus difformis
In short: as §2

[14] = test system: giant foxtail; experiment: Test B pre/postemergence giant foxtail; assay type: in vivo, Setaria faberii
In short: as §1

[15] = test system: sugar beet; experiment: Test B pre/postemergence sugar beet; assay type: in vivo, Beta vulgaris
In short: as §1

[16] = test system: duck salad; experiment: Test B flood test duck salad; assay type: in vivo, Heteranthera limosa
In short: as §2

[17] = test system: cocklebur; experiment: Test B pre/postemergence cocklebur; assay type: in vivo, Xanthium strumarium
In short: as §1

[18] = test system: morningglory; experiment: Test B pre/postemergence morningglory; assay type: in vivo, Ipomoea hederacea
In short: as §1

[19] = test system: blackgrass; experiment: Test B pre/postemergence blackgrass; assay type: in vivo, Alopecurus myosuroides
In short: as §1

[20] = test system: pigweed; experiment: Test B pre/postemergence pigweed; assay type: in vivo, Amaranthus retroflexus
In short: as §1

[21] = Postemergence, Rate 62 g/ha, scale of 0 to 10, 0 is no effect, 10 is complete control
[22] = Postemergence, Rate 125 g/ha, scale of 0 to 10 where 0 is no effect and 10 is complete control
[23] = Postemergence, Rate 250 g/ha, scale of 0 to 10, 0 is no effect, 10 is complete control
[24] = Postemergence, Rate 500 g/ha, scale of 0 to 10 where 0 is no effect and 10 is complete control
[25] = Preemergence, Rate 62 g/ha, scale 0 to 10 (0 no effect, 10 complete control)
[26] = Preemergence, Rate 125 g/ha, scale of 0 to 10 where 0 is no effect and 10 is complete control
[27] = Preemergence, Rate 500 g/ha, scale of 0 to 10 where 0 is no effect and 10 is complete control
[28] = Rate 62 g/ha, flood test species, Pre-emergence, visual evaluation after twelve to sixteen days
[29] = Rate 125 g/ha, under heading Pre-emergence, flood test species, visual evaluation after twelve to sixteen days
[30] = Rate 250 g/ha, Pre-emergence (flood test species), scale 0 to 10, 0 is no effect, 10 is complete control
[31] = Rate 500 g/ha, Pre-emergence section of Table B, 0 to 10 scale (0 no effect, 10 complete control)

CC(C)N(C(=O)n1oc(=O)n(C(C)CBr)c1=O)c1ccc(F)cc1F (stereo not drawn) [Compound 594]
Crabgrass plant response rating [1, 21]: 5 | Plant response rating, Crabgrass [1, 22]: 7 | Crabgrass plant response rating [1, 23]: 9 | Plant response rating, Crabgrass [1, 24]: 9 | Crabgrass plant response rating [1, 25]: 9 | Crabgrass plant response rating [1, 26]: 9 | Plant response rating, Crabgrass [1, 27]: 9 | Bedstraw plant response rating ([2]; Rate 62 g/ha, scale 0 to 10 (0 no effect, 10 complete control)): 0 | Bedstraw plant response rating ([2]; Rate 125 g/ha, scale of 0 to 10 where 0 is no effect and 10 is complete control): 0 | Bedstraw plant response rating (0 to 10 scale) ([2]; Rate 250 g/ha): 2 | Bedstraw plant response rating ([2]; Rate 500 g/ha, scale of 0 to 10 where 0 is no effect and 10 is complete control): 9 | Plant response rating, Soybean [3, 22]: 0 | Plant response rating, Soybean [3, 24]: 4 | Soybean plant response rating [3, 25]: 0 | Soybean plant response rating [3, 26]: 0 | Plant response rating, Soybean [3, 27]: 4 | Plant response rating, Wheat [4, 22]: 0 | Wheat plant response rating [4, 23]: 0 | Plant response rating, Wheat [4, 24]: 0 | Wheat plant response rating [4, 25]: 0 | Wheat plant response rating [4, 26]: 0 | Plant response rating, Wheat [4, 27]: 2 | Rape plant response rating [5, 21]: 0 | Plant response rating, Rape [5, 22]: 0 | Rape plant response rating [5, 23]: 0 | Plant response rating, Rape [5, 24]: 0 | Rape plant response rating [5, 25]: 0 | Rape plant response rating [5, 26]: 0 | Plant response rating, Rape [5, 27]: 9 | Plant response rating, Rice (0 to 10 scale, 0 is no effect, 10 is complete control) [6, 28]: 0 | Rice plant response rating (0 to 10 scale, 0 is no effect, 10 is complete control) [6, 29]: 0 | Rice plant response rating [6, 30]: 0 | Rice plant response rating [6, 31]: 0 | Plant response rating, Wild oats [7, 22]: 0 | Wild oats plant response rating [7, 23]: 0 | Plant response rating, Wild oats [7, 24]: 0 | Wild oats plant response rating [7, 25]: 0 | Wild oats plant response rating [7, 26]: 0 | Plant response rating, Wild oats [7, 27]: 5 | B. signalgrass plant response rating [8, 21]: 0 | Plant response rating, B. signalgrass [8, 22]: 0 | B. signalgrass plant response rating [8, 23]: 2 | Plant response rating, B. signalgrass [8, 24]: 3 | B. signalgrass plant response rating [8, 25]: 3 | B. signalgrass plant response rating [8, 26]: 3 | B. signalgrass plant response rating (0 to 10 scale, 0 is no effect, 10 is complete control) ([8]; Preemergence, Rate 250 g/ha): 5 | B. signalgrass plant response rating [8, 27]: 7 | Plant response rating, Barnyardgrass (0 to 10 scale, 0 is no effect, 10 is complete control) [9, 28]: 0 | Barnyardgrass plant response rating (0 to 10 scale, 0 is no effect, 10 is complete control) [9, 29]: 0 | Barnyardgrass plant response rating [9, 30]: 0 | Barnyardgrass plant response rating [9, 31]: 0 | Nutsedge plant response rating [10, 21]: 0 | Plant response rating, Nutsedge [10, 22]: 0 | Nutsedge plant response rating [10, 23]: 3 | Plant response rating, Nutsedge [10, 24]: 3 | Nutsedge plant response rating [10, 25]: 0 | Nutsedge plant response rating [10, 26]: 0 | Plant response rating, Nutsedge [10, 27]: 6 | Plant response rating, Velvetleaf [11, 22]: 3 | Velvetleaf plant response rating [11, 23]: 3 | Plant response rating, Velvetleaf [11, 24]: 5 | Velvetleaf plant response rating [11, 25]: 2 | Velvetleaf plant response rating [11, 26]: 4 | Plant response rating, Velvetleaf [11, 27]: 7 | Corn plant response rating [12, 21]: 0 | Plant response rating, Corn [12, 22]: 0 | Corn plant response rating [12, 23]: 0 | Plant response rating, Corn [12, 24]: 0 | Corn plant response rating [12, 25]: 0 | Corn plant response rating [12, 26]: 0 | Corn plant response rating (0 to 10 scale) ([12]; Preemergence, Rate 250 g/ha): 2 | Plant response rating, Corn [12, 27]: 4 | Plant response rating, S. Flatsedge (0 to 10 scale, 0 is no effect, 10 is complete control) [13, 28]: 0 | S. Flatsedge plant response rating (0 to 10 scale, 0 is no effect, 10 is complete control) [13, 29]: 0 | S. Flatsedge plant response rating [13, 30]: 0 | S. Flatsedge plant response rating [13, 31]: 0 | Giant foxtail plant response rating [14, 21]: 6 | Plant response rating, Giant foxtail [14, 22]: 7 | Giant foxtail plant response rating [14, 23]: 7 | Plant response rating, Giant foxtail [14, 24]: 9 | Giant foxtail plant response rating [14, 25]: 9 | Giant foxtail plant response rating [14, 26]: 9 | Plant response rating, Giant foxtail [14, 27]: 10 | Plant response rating, Sugarbeets [15, 22]: 5 | Sugarbeets plant response rating [15, 23]: 5 | Plant response rating, Sugarbeets [15, 24]: 5 | Sugarbeets plant response rating [15, 25]: 0 | Sugarbeets plant response rating [15, 26]: 0 | Plant response rating, Sugarbeets [15, 27]: 8 | Plant response rating, Ducksalad (0 to 10 scale, 0 is no effect, 10 is complete control) [16, 28]: 0 | Ducksalad plant response rating (0 to 10 scale, 0 is no effect, 10 is complete control) [16, 29]: 0 | Ducksalad plant response rating [16, 30]: 0 | Ducksalad plant response rating [16, 31]: 0 | Cocklebur plant response rating [17, 21]: 0 | Plant response rating, Cocklebur [17, 22]: 0 | Cocklebur plant response rating [17, 23]: 3 | Plant response rating, Cocklebur [17, 24]: 4 | Cocklebur plant response rating [17, 26]: 0 | Cocklebur plant response rating (0 to 10 scale) ([17]; Preemergence, Rate 250 g/ha): 0 | Plant response rating, Cocklebur [17, 27]: 2 | Morningglory plant response rating [18, 21]: 0 | Plant response rating, Morningglory [18, 22]: 2 | Morningglory plant response rating [18, 23]: 2 | Plant response rating, Morningglory [18, 24]: 7 | Morningglory plant response rating [18, 25]: 0 | Morningglory plant response rating [18, 26]: 0 | Plant response rating, Morningglory [18, 27]: 6 | Plant response rating, Blackgrass [19, 22]: 5 | Blackgrass plant response rating [19, 23]: 5 | Plant response rating, Blackgrass [19, 24]: 5 | Blackgrass plant response rating [19, 25]: 5 | Blackgrass plant response rating [19, 26]: 5 | Blackgrass plant response rating (0 to 10 scale) ([19]; Preemergence, Rate 250 g/ha): 9 | Blackgrass plant response rating [19, 27]: 9 | Plant response rating, Redroot pigweed [20, 22]: 0 | Redroot pigweed plant response rating [20, 23]: 3 | Plant response rating, Redroot pigweed [20, 24]: 4 | Redroot pigweed plant response rating [20, 25]: 0 | Redroot pigweed plant response rating [20, 26]: 0 | Plant response rating, Redroot pigweed [20, 27]: 10
